According to patent US20140273093A1, “METHODS OF PRODUCING ANTIBODIES IN YEAST” (BRISTOL-MYERS SQUIBB COMPANY, priority 2013, published 2014):

System: P. pastoris
Test: P. pastoris fed-batch fermentation Run 01MAY11: effects of hydroxyurea on cell growth and anti-IL-6 antibody productivity
Format: cell-based, Pichia pastoris
Conditions: for Sup Titer / WCW / WB Titer: Lots T5, T6 & T10; for Sup Titer / WB Titer: hydroxyurea 2.6-2.8 g/L; for WCW: hydroxyurea 2.6-2.8 g/L added 5 hours after feed start; for WB Titer: calculated from supernatant titer and WCW
Experimental: The glucose and ethanol were measured by YSI 2700 (YSI Incorporated, Yellow Springs, Ohio), O2 and CO2 of the exhaust line were measured by Questor GP Process Mass Spectrometer (ABB Extrel, Pittsburg, Pa.) and the RQ value was calculated using below Equation [1]. The wet cell weight (WCW) was measured by centrifuging 1 milliliter (mL) fermentation broth at 13,200 rpm for 10 minutes, weighing pellet, and calculated ratio of pellets weight (g) over volume (mL). The supernatant titer (g/L) was measured by the HPLC method and the whole broth (WB) titer was then calculated by below Equation [2].
WB_Titer=Supernatant_Titer*(1−WCW/1000)
The treatment cultures were operated the same way plus adding hydroxyurea 5 hours after feed start.

SMILES: NC(=O)NO [Hydroxyurea]
- average whole broth titer (90 hours run time, three hydroxyurea treatment lots, control 59.8): 75 normalized units
- Sup Titer (Age 59 h): 83.9 ± 2.2 Normalized
- WCW (Age 59 h): 437 ± 17 g/kg
- WB Titer (Age 59 h): 47.2 ± 1.8 Normalized
- Sup Titer (Age 90 h): 123.3 ± 5.8 Normalized
- WCW (Age 90 h): 392 ± 20 g/kg
- WB Titer (Age 90 h): 75.0 ± 2.7 Normalized
- WCW reached/maintained by hydroxyurea treatment lots (after peak cell density at 30-40 hours, control lots ~400 g/Kg): ~450 g/kg
